Converted amounts (≈) assume the structure as drawn. Structures can show the parent of a compound that is named as a salt.
test system: Escherichia coli ATCC 25922; assay: Minimal Inhibitory Concentration (MIC) determination, broth microdilution (CLSI M07-A10); format: cell-based; conditions: Escherichia coli, ATCC25922, strain Escherichia coli ATCC 25922, 18-24 hours at 35±2° C., lowest concentration for complete growth inhibition (no visible growth), read-out: Escherichia coli growth inhibition MIC
Description: Minimal Inhibitory Concentration (MIC) Determination:
The MIC of antibacterial compounds against multiple species and strains was determined using the broth microdilution method according to M07-A10 Clinical and Laboratory Standards Institute (CLSI) guidelines, using the appropriate broth medium. In short, the compound plates were prepared by dispensing 100 μL of each stock solution in the first well of a 96 well microtiter plate (MTP) at a concentration 100-fold higher than the final concentration desired in broth. Eleven serial 2-fold dilutions of the highest concentration were made in DMSO for new compounds and in water (or appropriate solution) for reference compounds [2]. 1 μL of each well was transferred in a new MTP, which served as the test plate by subsequent inoculation. This bacterial suspension was prepared from strains that were first sub-cultured on agar plates and incubated for 18-24 hours as appropriate. Following incubation, the inoculum was prepared from isolated colonies and adjusted to 0.5 McFarland turbidity standard (1 to 2×10^8 Colony Forming Units (CFU)/mL) in 0.9% saline. The bacterial suspension was then diluted 1:200 in appropriate sterile medium and within 15 minutes 100 μL/well were dispensed. Negative controls (lack of bacterial cells) and growth control wells (lack of compound) were included in all plates. MTPs were incubated for 18-24 hours at 35±2° C. in ambient air. The MIC value of each compound, expressed as μg/mL, was determined as the lowest concentration required for complete growth inhibition (no visible growth). • [1] CLSI (2015) Methods for dilution antimicrobial susceptibility tests for bacteria that grow aerobically; Approved Standard, Tenth Edition. CLSI Document M7-A10 (ISBN 1-56238-987-4). Wayne, PA: Clinical and Laboratory Standards Institute, 19087, USA. • [2] CLSI (2017) Performance Standards for Antimicrobial Susceptibility Testing; Twenty-Fifth Informational Supplement. CLSI Document M100-S27, CLSI, Wayne, Pennsylvania 19087, USA.
Table 1 provides the Minimal Inhibitory Concentrations (MIC) in micrograms per millilitre of the compounds of present invention obtained against the strain Escherichia coli ATCC 25922.

| SMILES | MIC |
| --- | --- |
| CNCc1nc2cc3c(c(F)c2o1)CC(CN1CCC2(CC1)CN(c1ccc4c(n1)NC(=O)CO4)C(=O)O2)C3 (single isomer, unassigned) [Example 136, 6-[8-[[8-Fluoro-2-(methylaminomethyl)-6,7-dihydro-5H-cyclopenta[f][1,3]benzoxazol-6-yl]methyl]-2-oxo-1-oxa-3,8-diazaspiro[4.5]decan-3-yl]-4H-pyrido[3,2-b][1,4]oxazin-3-one] | 1 µg/mL (≈ 1.86 µM) |
| O=C1COc2ncc(N3CC4(CCN(CC5Cc6cc7nc([C@@H]8C[C@@H](O)CN8)oc7c(F)c6C5)CC4)OC3=O)nc2N1 (single isomer, unassigned) [Example 141] | 0.5 µg/mL (≈ 0.863 µM) |
| CN[C@@H](CO)c1nc2cc3c(c(F)c2o1)CC(CN1CCC2(CC1)CN(c1cnc4c(n1)NC(=O)CO4)C(=O)O2)C3 (single isomer, unassigned) [Example 145] | 0.5 µg/mL (≈ 0.881 µM) |
| CN(C)CC(=O)N(C)CCn1nnc2c(F)c3c(c(F)c21)CC(CN1CCC2(CC1)CN(c1cnc4c(n1)NC(=O)CO4)C(=O)O2)C3 (single isomer, unassigned) [Example 152, N-[2-[4,8-difluoro-6-[[2-oxo-3-(3-oxo-4H-pyrazino[2,3-b][1,4]oxazin-6-yl)-1-oxa-3,8-diazaspiro[4.5]decan-8-yl]methyl]-6,7-dihydro-5H-cyclopenta[f]benzotriazol-1-yl]ethyl]-2-(dimethylamino)-N-methyl-acetamide] | 2 µg/mL (≈ 3.05 µM) |
| CC(=O)N(C)CCn1nnc2c(F)c3c(c(F)c21)CC(CN1CCC2(CC1)CN(c1cnc4c(n1)NC(=O)CO4)C(=O)O2)C3 (single isomer, unassigned) [Example 156, N-[2-[4,8-difluoro-6-[[2-oxo-3-(3-oxo-4H-pyrazino[2,3-b][1,4]oxazin-6-yl)-1-oxa-3,8-diazaspiro[4.5]decan-8-yl]methyl]-6,7-dihydro-5H-cyclopenta[f]benzotriazol-1-yl]ethyl]-N-methyl-acetamide] | 8 µg/mL (≈ 13.1 µM) |
| CN(CCn1nnc2c(F)c3c(c(F)c21)CC(CN1CCC2(CC1)CN(c1cnc4c(n1)NC(=O)CO4)C(=O)O2)C3)C(=O)CN (single isomer, unassigned) [Example 166, 2-Amino-N-methyl-N-[2-[4,8-difluoro-6-[[2-oxo-3-(3-oxo-4H-pyrazino[2,3-b][1,4]oxazin-6-yl)-1-oxa-3,8-diazaspiro[4.5]decan-8-yl]methyl]-6,7-dihydro-5H-cyclopenta[f]benzotriazol-1-yl]ethyl]acetamide] | 1 µg/mL (≈ 1.6 µM) |

same assay, conditions: strain Escherichia coli ATCC 25922, 18-24 hours at 35±2° C., lowest concentration for complete growth inhibition (no visible growth)

| SMILES | Escherichia coli growth inhibition MIC |
| --- | --- |
| CNCc1nc2cc3c(c(F)c2o1)CC(CN1CCC2(CC1)CN(c1ccc4c(n1)NC(=O)CO4)C(=O)O2)C3 (single isomer, unassigned) [Example 137, 6-[8-[[8-Fluoro-2-(methylaminomethyl)-6,7-dihydro-5H-cyclopenta[f][1,3]benzoxazol-6-yl]methyl]-2-oxo-1-oxa-3,8-diazaspiro[4.5]decan-3-yl]-4H-pyrido[3,2-b][1,4]oxazin-3-one] | 0.5 µg/mL |
| CN(C)CC(=O)N(C)CCn1nnc2c(F)c3c(c(F)c21)CC(CN1CCC2(CC1)CN(c1cnc4c(n1)NC(=O)CO4)C(=O)O2)C3 (single isomer, unassigned) [Example 153, N-[2-[4,8-difluoro-6-[[2-oxo-3-(3-oxo-4H-pyrazino[2,3-b][1,4]oxazin-6-yl)-1-oxa-3,8-diazaspiro[4.5]decan-8-yl]methyl]-6,7-dihydro-5H-cyclopenta[f]benzotriazol-1-yl]ethyl]-2-(dimethylamino)-N-methyl-acetamide] | 2 µg/mL |
| CC(=O)N(C)CCn1nnc2c(F)c3c(c(F)c21)CC(CN1CCC2(CC1)CN(c1cnc4c(n1)NC(=O)CO4)C(=O)O2)C3 (single isomer, unassigned) [Example 157, N-[2-[4,8-difluoro-6-[[2-oxo-3-(3-oxo-4H-pyrazino[2,3-b][1,4]oxazin-6-yl)-1-oxa-3,8-diazaspiro[4.5]decan-8-yl]methyl]-6,7-dihydro-5H-cyclopenta[f]benzotriazol-1-yl]ethyl]-N-methyl-acetamide] | 4 µg/mL |
| CN(CCn1nnc2c(F)c3c(c(F)c21)CC(CN1CCC2(CC1)CN(c1cnc4c(n1)NC(=O)CO4)C(=O)O2)C3)C(=O)CN (single isomer, unassigned) [Example 167, 2-Amino-N-methyl-N-[2-[4,8-difluoro-6-[[2-oxo-3-(3-oxo-4H-pyrazino[2,3-b][1,4]oxazin-6-yl)-1-oxa-3,8-diazaspiro[4.5]decan-8-yl]methyl]-6,7-dihydro-5H-cyclopenta[f]benzotriazol-1-yl]ethyl]acetamide] | 1 µg/mL |

same assay, conditions: strain Escherichia coli ATCC 25922, 18-24 hours at 35±2° C., lowest concentration for complete growth inhibition (no visible growth), dihydrochloride

| SMILES | Escherichia coli growth inhibition MIC |
| --- | --- |
| NCCn1nc2cc3c(c(F)c2n1)CC(CN1CCC2(CC1)CN(c1ccc4c(n1)NC(=O)CO4)C(=O)O2)C3 (single isomer, unassigned) [Example 132, 6-[2-oxo-8-[[2-(2-aminoethyl)-8-fluoro-6,7-dihydro-5H-cyclopenta[f]benzotriazol-6-yl]methyl]-1-oxa-3,8-diazaspiro[4.5]decan-3-yl]-4H-pyrido[3,2-b][1,4]oxazin-3-one dihydrochloride] | 0.25 µg/mL |
| NCCn1nc2cc3c(c(F)c2n1)CC(CN1CCC2(CC1)CN(c1ccc4c(n1)NC(=O)CO4)C(=O)O2)C3 (single isomer, unassigned) [Example 133, 6-[2-oxo-8-[[2-(2-aminoethyl)-8-fluoro-6,7-dihydro-5H-cyclopenta[f]benzotriazol-6-yl]methyl]-1-oxa-3,8-diazaspiro[4.5]decan-3-yl]-4H-pyrido[3,2-b][1,4]oxazin-3-one dihydrochloride] | 1 µg/mL |
| NCCn1nc2cc3c(c(F)c2n1)CC(CN1CCC2(CC1)CN(c1cnc4c(n1)NC(=O)CO4)C(=O)O2)C3 (single isomer, unassigned) [Example 134, 6-[2-oxo-8-[[2-(2-aminoethyl)-8-fluoro-6,7-dihydro-5H-cyclopenta[f]benzotriazol-6-yl]methyl]-1-oxa-3,8-diazaspiro[4.5]decan-3-yl]-4H-pyrazino[2,3-b][1,4]oxazin-3-one dihydrochloride] | 0.125 µg/mL |
| NCCn1nc2cc3c(c(F)c2n1)CC(CN1CCC2(CC1)CN(c1cnc4c(n1)NC(=O)CO4)C(=O)O2)C3 (single isomer, unassigned) [Example 135, 6-[2-oxo-8-[[2-(2-aminoethyl)-8-fluoro-6,7-dihydro-5H-cyclopenta[f]benzotriazol-6-yl]methyl]-1-oxa-3,8-diazaspiro[4.5]decan-3-yl]-4H-pyrazino[2,3-b][1,4]oxazin-3-one dihydrochloride] | ≤0.06 µg/mL |
| NCCn1nc2cc(F)c3c(c2n1)CC(CN1CCC2(CC1)CN(c1ccc4c(n1)NC(=O)CO4)C(=O)O2)C3 (single isomer, unassigned) [Example 170, 6-[2-Oxo-8-[[2-(2-aminoethyl)-5-fluoro-7,8-dihydro-6H-cyclopenta[e]benzotriazol-7-yl]methyl]-1-oxa-3,8-diazaspiro[4.5]decan-3-yl]-4H-pyrido[3,2-b][1,4]oxazin-3-one dihydrochloride] | 0.25 µg/mL |

same assay, conditions: strain Escherichia coli ATCC 25922, 18-24 hours at 35±2° C., lowest concentration for complete growth inhibition (no visible growth), hydrochloride

| SMILES | Escherichia coli growth inhibition MIC |
| --- | --- |
| C[C@H](N)Cn1nnc2c(F)c3c(c(F)c21)CC(CN1CCC2(CC1)CN(c1cnc4c(n1)NC(=O)CO4)C(=O)O2)C3.Cl (single isomer, unassigned) [Example 131] | 0.125 µg/mL |
